Assay results reported in US8394786B2, “Quinazoline derivatives” (Janssen Pharmaceutica N.V., priority 2003, dated 2013).

Columns and labels:
[1] = system: A431 cells; assay: Proliferation assay on the squamous carcinoma cell line A431 cells (C5); assay type: cell-based; conditions: Homo sapiens, A-431; 72 hours with compounds; MTT cell viability assay; read-out: A431 cell (C5): pIC50 (converted)
Experimental: The squamous carcinoma cell line (A431) was used in a cell proliferation assay, to assess the inhibitory effect of the compounds in whole cells.
In a first step the A431 cells were incubated for 24 hours in the presence of 10% FCS serum. In the second step the cells were incubated for 72 hours with the compounds to be tested at a final concentration of 100 ng/ml. The effect of the compounds on the cell proliferation was finally assessed in a standard MTT cell viability assay.

[2] = system: SKOV3 cells; assay: Serum starved proliferation assay on the ovarian carcinoma SKOV3 cells (C3); assay type: cell-based; conditions: EGF stimulated (100 ng/ml, 72 hours, serum free) or 72 hours with compounds, MTT cell viability assay; for IC50: Homo sapiens, SK-OV-3, 72 h, read-out: SKOV3 cell (C3): pIC50 (converted)
How it was run: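 MTT viability read-out in SKOV3 cells after a 24 h pre-incubation in 10% FCS, in one of two formats. EGF-stimulated version: serum-free compound exposure followed by 100 ng/ml EGF (final) for 72 h at 37 °C, 5% CO2. Otherwise, compound alone for 72 h.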

[3] = target: EGFR (Homo sapiens, UniProt P00533); assay: In vitro inhibition of EGFR, Flash Plate or glass-fiber filter technology (C2); assay type: biochemical; design: 0.5 μg EGFR-kinase domain/well; conditions: EGFR-kinase domain, 5.0 μM unlabeled ATP, read-out: Kinase activity.(C2): pIC50 (converted)
EGFR, sequence (P00533 712-979 limits assumed): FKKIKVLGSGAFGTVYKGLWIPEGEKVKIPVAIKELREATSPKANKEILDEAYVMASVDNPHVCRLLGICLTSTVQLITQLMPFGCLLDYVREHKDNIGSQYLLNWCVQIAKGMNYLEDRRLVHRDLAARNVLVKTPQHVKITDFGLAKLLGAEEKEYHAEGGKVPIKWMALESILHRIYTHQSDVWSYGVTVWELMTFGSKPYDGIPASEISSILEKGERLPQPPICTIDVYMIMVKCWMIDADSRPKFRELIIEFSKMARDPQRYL
How it was run: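 Two radiometric formats were used, each with 5.0 μM unlabeled ATP, [33P]ATP, 0.5 μg EGFR kinase domain and compounds from 1·10^−10 to 1·10^−6 M. Glass-fiber filter: 25° C for 10 min, pH 7.5, Mn2+/Mg2+, acid-stopped, phosphorimager read. Streptavidin Flash Plate: biotinylated poly(GT), pH 8.0, 30° C for 60 min.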

Compound	IC50 [1] [nM]	IC50 [2] [nM]	IC50 [3] [nM]	melting point [°C]	SKOV3 cell (C3): pIC50 [2]
COc1cc2ncnc3c2cc1OCCCC(=O)NCCCc1ccc(Cl)cc1N3 [Compound 40, 4,6-ethanediylidene-8H-pyrimido[4,5-b][6,1,11]benzoxadiazacyclohexadecin-11(12H)-one, 18-chloro-9,10,13,14,15,20-hexahydro-21-methoxy-]	631	50.1	31.6		
COc1cc2ncnc3c2cc1OCCCCCN(C(=O)OC(C)(C)C)Cc1ccc(Br)cc1N3 [Compound 19, 4,6-ethanediylidenepyrimido[4,5-b][6,1,12]benzoxadiazacyclo-pentadecine-13(8H)-carboxylic acid, 17-bromo-9,10,11,12,14,19-hexahydro-20-methoxy-, 1,1-dimethylethyl ester]	> 3160	5010	63.1		
COc1cc2ncnc3c2cc1OCCCCCOCCc1ccc(Cl)cc1N3 [Compound 38, 4,6-ethanediylidene-8H,14H-pyrimido[4,5-b][6,12,1]benzodioxaazacyclohexadecine, 18-chloro-9,10,11,12,15,20-hexahydro-21-methoxy-]	1260	126	20		
COc1cc2ncnc3c2cc1OCCCCOCCc1ccc(Cl)cc1N3 [Compound 23, 4,6-ethanediylidene-13H-pyrimido[4,5-b][6,11,1]benzodioxaazacyclo-pentadecine, 17-chloro-8,9,10,11,14,19-hexahydro-20-methoxy-]	501	60.3	10		
COCCOc1cc2ncnc3c2cc1OCCCCCCOc1ccc(Br)cc1N3 [Compound 28, 4,6-ethanediylidene-19H-pyrimido[4,5-b][6,13,1]benzodioxaazacyclopentadecine, 17-bromo-8,9,10,11,12,13-hexahydro-20-(2-methoxyethoxy)-]	1580	1450	25.1		
COc1cc2ncnc3c2cc1OCCCCCCOc1cc(Cl)ccc1N3 [Compound 37, 4,6-ethanediylidene-19H-pyrimido[4,5-b][6,13,1]benzodioxaazacyclopentadecine, 16-chloro-8,9,10,11,12,13-hexahydro-20-methoxy-]	> 3160	> 10000	> 10000		
COc1cc2ncnc3c2cc1OCCOCCOCCc1ccc(Cl)cc1N3 [Compound 39, 4,6-ethanediylidene-14H-pyrimido[4,5-b][6,9,12,1]benzotrioxaazacyclohexadecine, 18-chloro-8,9,11,12,15,20-hexahydro-21-methoxy-]	1580	200	20		
COc1cc2ncnc3c2cc1OCCN(CCN1CCOCC1)CCCOc1ccc(Cl)cc1N3 [Compound 33, 4,6-etheno-19H-pyrimido[5,4-k][1,8,5,13]benzodioxadiazacyclopentadecine, 17-chloro-8,9,10,11,12,13-hexahydro-20-methoxy-10-[2-(4-morpholinyl)ethyl]-]	1580	1740	25.1		
COc1cc2ncnc3c2cc1OCCCCCCOc1ccc(-c2cccc(C#N)c2)cc1N3 [Compound 35, benzonitrile, 3-(8,9,10,11,12,13-hexahydro-20-methoxy-4,6-ethanediylidene-19H-pyrimido[4,5-b][6,13,1]benzodioxaazacyclopentadecin-17-yl)-]	> 3160	> 10000	3980		
COc1cc2ncnc3c2cc1OCCCNC(=O)CCNCc1ccc(Cl)cc1N3 [Compound 70, 4,6-ethanediylidenepyrimido[4,5-b][6,1,10,14]benzoxatriazacycloheptadecin-12(13H)-one, 19-chloro-8,9,10,11,14,15,16,21-octahydro-22-methoxy-]		3160	10	236.4 to 237.3	
COc1cc2ncnc3c2cc1OCCNC(=O)C(C)(C)NC(=O)Cc1ccc(Cl)cc1N3 [Compound 65, 4,6-ethanediylidene-8H-pyrimido[4,5-b][6,1,9,12]benzoxatriazacyclohexadecine-11,14-dione, 18-chloro-9,10,12,13,15,20-hexahydro-21-methoxy-12,12-dimethyl-]		20	12.6	285	
COc1cc2ncnc3c2cc1OCCNC(=O)CNC(=O)Cc1ccc(Cl)cc1N3 [Compound 69, 4,6-ethanediylidene-8H-pyrimido[4,5-b][6,1,9,12]benzoxatriazacyclohexadecine-11,14-dione, 18-chloro-9,10,12,13,15,20-hexahydro-21-methoxy-]		63.1	50.1	292	

Now from value to molecule:

IC50 [1] [nM]	IC50 [2] [nM]	IC50 [3] [nM]	melting point [°C]	SKOV3 cell (C3): pIC50 [2]	Compound
	63.1	200	195.8 to 196.6		COc1cc2ncnc3c2cc1OCCNCCN(C)Cc1ccc(Cl)cc1N3 [Compound 116, 4,6-ethanediylidenepyrimido[4,5-b][6,1,9,12]benzoxatriazacyclopentadecine, 17-chloro-8,9,10,11,12,13,14,19-octahydro-20-methoxy-13-methyl-]
	251	251	304.2 to 304.4		COc1cc2ncnc3c2cc1OCCNC(=O)CNCc1cc(F)c(Cl)cc1N3 [Compound 81, 4,6-ethanediylidenepyrimido[4,5-b][6,1,9,12]benzoxatriazacyclopentadecin-11(8H)-one, 17-chloro-16-fluoro-9,10,12,13,14,19-hexahydro-20-methoxy-]
	10000	631	306.3 to 307.4		COc1cc2ncnc3c2cc1OCCNC(=O)CN(C)Cc1cc(F)c(Cl)cc1N3 [Compound 79, 4,6-ethanediylidenepyrimido[4,5-b][6,1,9,12]benzoxatriazacyclopentadecin-11(8H)-one, 17-chloro-16-fluoro-9,10,12,13,14,19-hexahydro-20-methoxy-13-methyl-]
	316	31.6	261.4 to 264		COc1cc2ncnc3c2cc1OCCNC(=O)C1CCCN1Cc1cc(F)c(Cl)cc1N3 (stereo not drawn) [Compound 78, 4,6-ethanediylidenepyrimido[4,5-b]pyrrolo[2,1-k][6,1,9,12]benzoxatriazacyclopentadecin-11(8H)-one, 19-chloro-18-fluoro-9,10,11a,12,13,14,16,21-octahydro-22-methoxy-]
	63.1	20	260.4 to 261.1		COc1cc2ncnc3c2cc1OCCCNC(=O)CN(C)Cc1cc(F)c(Cl)cc1N3 [Compound 80, 4,6-ethanediylidene-12H-pyrimido[4,5-b][6,1,10,13]benzoxatriazacyclohexadecin-12-one, 18-chloro-17-fluoro-8,9,10,11,13,14,15,20-octahydro-21-methoxy-14-methyl-]
	200	25.1	350.5 to 352.5		COc1cc2ncnc3c2cc1OCCCNC(=O)C1CCC(=O)N1Cc1ccc(Cl)cc1N3 (stereo not drawn) [Compound 76, 4,6-etheno-8H-pyrimido[4,5-b]pyrrolo[2,1-l][6,1,10,13]benzoxatriazacyclohexadecine-12,15(14H)-dione, 20-chloro-9,10,11,12a,13,17,22-heptahydro-23-methoxy-]
	10000	158	288.5 to 290.5		COc1cc2ncnc3c2cc1OCCNC(=O)CN(C)Cc1ccc(Cl)cc1N3 [Compound 72, 4,6-ethanediylidenepyrimido[4,5-b][6,1,9,12]benzoxatriazacyclopentadecin-11(8H)-one, 17-chloro-9,10,12,13,14,19-hexahydro-20-methoxy-13-methyl-]
		31.6	261.2 to 265	5.5	COc1cc2ncnc3c2cc1OCCNC(=O)C1CCCN1Cc1ccc(Cl)cc1N3 (stereo not drawn) [Compound 71, 4,6-ethanediylidenepyrimido[4,5-b]pyrrolo[2,1-k][6,1,9,12]benzoxatriazacyclopentadecin-11(8H)-one, 19-chloro-9,10,11a,12,13,14,16,21-octahydro-22-methoxy-]
	126	6.31	196.9 to 197.8		COc1cc2ncnc3c2cc1OCCCCNCCN(C)Cc1ccc(Cl)cc1N3 [Compound 115, 4,6-ethanediylidenepyrimido[4,5-b][6,1,11,14]benzoxatriazacycloheptadecine, 19-chloro-8,9,10,11,12,13,14,15,16,21-decahydro-22-methoxy-15-methyl-]
	3980	39.8	294.2 to 295.2		COc1cc2ncnc3c2cc1OCCNC(=O)CNCc1ccc(Cl)cc1N3 [Compound 73, 4,6-ethanediylidenepyrimido[4,5-b][6,1,9,12]benzoxatriazacyclopentadecin-11(8H)-one, 17-chloro-9,10,12,13,14,19-hexahydro-20-methoxy-]
